Test systems include OVCAR-8 ovarian; SK-MEL-28 melanoma; T-47D breast; COLO 205 colon; NCI/ADR-RES ovarian; A549 NSCLC; K-562 leukemia; BT-549 breast; HCT-116 colon; PC-3 prostate; OVCAR-4 ovarian; KM12 colon; SN12C renal; SK-MEL-5 melanoma; MDA-N; SR leukemia; TK-10 renal; MALME-3M melanoma.
Holding throughout (assay): NCI-60 cell line screen, 48 h

SMILES strings stand for the structures.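 How tested: cells in 96-well plates exposed to compound for 48 hours at five concentrations. TGI: total growth inhibition.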

Take `CNC(=O)Nn1c(SC)nc2ccccc21`: the TGI in the test on OVCAR-8 ovarian, with SK-MEL-28 melanoma, in the test with T-47D breast, in the test on COLO 205 colon, in the test on NCI/ADR-RES ovarian and in the test with A549 NSCLC was more than 100 µM each time. Also, the TGI in the test with K-562 leukemia, in the test with BT-549 breast, in the test with HCT-116 colon, in the test with PC-3 prostate, in the test with OVCAR-4 ovarian and in the test with KM12 colon was more than 100 µM throughout. For the same compound, the TGI in the test with SN12C renal, with SK-MEL-5 melanoma, in the test on MDA-N, in the test with SR leukemia, in the test with TK-10 renal and in the test on MALME-3M melanoma was more than 100 µM in each case.
As to `CC1NC(=O)c2c(-c3ccccc3)nn(-c3ccccc3)c2NC1=O` (stereo unspecified), the TGI in the test on OVCAR-8 ovarian, in the test with SK-MEL-28 melanoma, in the test with T-47D breast, with COLO 205 colon, in the test with NCI/ADR-RES ovarian and in the test on A549 NSCLC was more than 100 µM in each case. Moreover, the TGI with K-562 leukemia, in the test with BT-549 breast, with HCT-116 colon, with PC-3 prostate, with OVCAR-4 ovarian and in the test with KM12 colon was more than 100 µM in each case. Further, the TGI in the test with SN12C renal, with SK-MEL-5 melanoma, in the test on MDA-N, with SR leukemia, with TK-10 renal and in the test on MALME-3M melanoma was more than 100 µM each time.
Take `Cc1nn(C(=O)c2ccc(Cl)cc2)c2c1C(c1ccccc1)SC(N)=N2` (stereo unspecified): the TGI with OVCAR-8 ovarian, in the test on SK-MEL-28 melanoma, in the test with T-47D breast, with COLO 205 colon, with NCI/ADR-RES ovarian and in the test with A549 NSCLC was more than 10 µM in each case. For the same compound, the TGI in the test with K-562 leukemia, with BT-549 breast, in the test on HCT-116 colon, with PC-3 prostate, in the test on OVCAR-4 ovarian and with KM12 colon was more than 10 µM throughout. Also, the TGI in the test on SN12C renal, in the test with SK-MEL-5 melanoma, in the test with MDA-N, with SR leukemia, with TK-10 renal and with MALME-3M melanoma was more than 10 µM throughout.
On to `CC(=O)OC12c3ccccc3C(c3ccccc31)C1C(=O)N(c3ccccc3O)C(=O)C12` (stereo unspecified), for which the TGI with OVCAR-8 ovarian, with SK-MEL-28 melanoma, with T-47D breast, in the test on COLO 205 colon, with NCI/ADR-RES ovarian and in the test with A549 NSCLC was more than 100 µM in each case. The TGI in the test on K-562 leukemia, in the test on BT-549 breast, in the test with HCT-116 colon, with PC-3 prostate, in the test with OVCAR-4 ovarian and in the test with KM12 colon was more than 100 µM each time. For the same compound, the TGI in the test with SN12C renal, with SK-MEL-5 melanoma, in the test with MDA-N, in the test with SR leukemia, with TK-10 renal and with MALME-3M melanoma was more than 100 µM throughout.
`Cc1ccc(C)n1-n1c(Cc2ccc(Cl)cc2)n[nH]c1=O`: the TGI with OVCAR-8 ovarian, in the test with SK-MEL-28 melanoma, with T-47D breast, in the test with COLO 205 colon, in the test with NCI/ADR-RES ovarian and in the test on A549 NSCLC was more than 100 µM each time. Also, the TGI in the test with K-562 leukemia, in the test on BT-549 breast, in the test with HCT-116 colon, with PC-3 prostate, in the test with OVCAR-4 ovarian and in the test with KM12 colon was more than 100 µM throughout. In addition, the TGI in the test with SN12C renal, in the test with SK-MEL-5 melanoma, with MDA-N, in the test with SR leukemia, in the test with TK-10 renal and in the test on MALME-3M melanoma was more than 100 µM throughout.
For the compound `C/C(=N/NC(=S)Nc1ccccc1C)c1ccccn1`, the TGI in the test with OVCAR-8 ovarian was 9.32 µM; with SK-MEL-28 melanoma, 23.1 µM; in the test with T-47D breast, 3.49 µM; with COLO 205 colon, 2.56 µM; with NCI/ADR-RES ovarian, 8.62 µM; with A549 NSCLC, 18.5 µM. In addition, the TGI worked out at 3.4 µM with K-562 leukemia; 16 µM in the test with BT-549 breast; 12.9 µM with HCT-116 colon; 19.5 µM in the test with PC-3 prostate; 18.5 µM with OVCAR-4 ovarian; 17.4 µM in the test with KM12 colon. Also, the TGI in the test on SN12C renal is 6.51 µM; with SK-MEL-5 melanoma, 2.31 µM; in the test with MDA-N it was 20.1 µM; in the test on SR leukemia, more than 4.64 µM; with TK-10 renal, 4.27 µM; in the test with MALME-3M melanoma, 15.9 µM.
As for `Cc1ccc(C2=NN=C3C(c4ccccc4)=Nc4ccccc4N3C2)cc1`, the TGI in the test on OVCAR-8 ovarian, in the test with SK-MEL-28 melanoma, in the test with T-47D breast, with COLO 205 colon, with NCI/ADR-RES ovarian and with A549 NSCLC was more than 100 µM throughout. For the same compound, the TGI with K-562 leukemia was more than 100 µM; in the test with BT-549 breast, more than 100 µM; in the test on HCT-116 colon, more than 83.7 µM; in the test with PC-3 prostate, more than 100 µM; in the test on OVCAR-4 ovarian, 21.8 µM; in the test on KM12 colon it was more than 100 µM. Also, the TGI is more than 100 µM with SN12C renal; 32.8 µM in the test on SK-MEL-5 melanoma; more than 100 µM in the test on MDA-N; more than 100 µM in the test on SR leukemia; 1.78 µM in the test on TK-10 renal; 47.2 µM in the test on MALME-3M melanoma.
`COc1ccccc1NC(=S)NNC(=O)c1cc(-c2ccccc2)nc2ccccc12`: the TGI in the test on OVCAR-8 ovarian was 49 µM; in the test with SK-MEL-28 melanoma it was 62 µM; with T-47D breast, 63 µM; in the test with COLO 205 colon, 45.8 µM; in the test on NCI/ADR-RES ovarian it was 63.5 µM; with A549 NSCLC, 35 µM. The TGI is more than 100 µM with K-562 leukemia; 63.8 µM in the test on BT-549 breast; 25.6 µM in the test with HCT-116 colon; 49.3 µM in the test on PC-3 prostate; 85.4 µM in the test on OVCAR-4 ovarian; 46.5 µM in the test on KM12 colon. Besides, the TGI is 41.5 µM with SN12C renal; 19.8 µM in the test on SK-MEL-5 melanoma; 7.78 µM in the test on MDA-N; 4.53 µM with SR leukemia; more than 100 µM in the test with TK-10 renal; 28.9 µM in the test with MALME-3M melanoma.
Turning to `CC(C)(C)OC(=O)CCC1NC(=O)[C@@H]2Cc3c([nH]c4ccccc34)C(c3ccccc3)N2C1=O` (stereo partly specified), the TGI in the test on OVCAR-8 ovarian is more than 100 µM; with SK-MEL-28 melanoma, more than 100 µM; in the test on T-47D breast, more than 100 µM; in the test on COLO 205 colon, 43.7 µM; in the test on NCI/ADR-RES ovarian it was 87.6 µM; in the test with A549 NSCLC, more than 100 µM. Besides, the TGI is more than 100 µM in the test with K-562 leukemia; 64.4 µM with BT-549 breast; 42.7 µM in the test with HCT-116 colon; 52.9 µM in the test on PC-3 prostate; more than 100 µM in the test with OVCAR-4 ovarian; 65.4 µM in the test on KM12 colon. Besides, the TGI in the test on SN12C renal was 53.1 µM; in the test on SK-MEL-5 melanoma, 37.9 µM; in the test on MDA-N, 45.7 µM; in the test on SR leukemia, more than 100 µM; with TK-10 renal, more than 100 µM; in the test on MALME-3M melanoma, 43.4 µM.
Regarding `CCOc1ccc(-n2c(=O)c3nn4c(=O)n(-c5ccc(OCC)cc5)c(=O)c4nn3c2=O)cc1`, the TGI in the test on OVCAR-8 ovarian, in the test with SK-MEL-28 melanoma, in the test on T-47D breast, in the test on COLO 205 colon, in the test with NCI/ADR-RES ovarian and in the test with A549 NSCLC was more than 100 µM throughout. The TGI in the test with K-562 leukemia, with BT-549 breast, in the test on HCT-116 colon, in the test on PC-3 prostate, in the test on OVCAR-4 ovarian and in the test on KM12 colon was more than 100 µM throughout. In addition, the TGI with SN12C renal, in the test with SK-MEL-5 melanoma, in the test on MDA-N, in the test with SR leukemia, in the test on TK-10 renal and in the test on MALME-3M melanoma was more than 100 µM in each case.
In the case of `CCN(CC)CCOc1ccc(N2Cc3cc(OC)c(OC)cc3C2=O)cc1`, the TGI in the test on OVCAR-8 ovarian, in the test on SK-MEL-28 melanoma, in the test with T-47D breast, with COLO 205 colon, in the test with NCI/ADR-RES ovarian and in the test with A549 NSCLC was more than 100 µM throughout. Also, the TGI in the test with K-562 leukemia, in the test with BT-549 breast, with HCT-116 colon, in the test on PC-3 prostate, with OVCAR-4 ovarian and with KM12 colon was more than 100 µM in each case. Further, the TGI with SN12C renal, in the test with SK-MEL-5 melanoma, in the test with MDA-N, with SR leukemia, in the test on TK-10 renal and with MALME-3M melanoma was more than 100 µM each time.
Consider `Cc1cc(C)c2c(=O)cc(-c3ccccc3)[nH]c2c1`, for which the TGI in the test on OVCAR-8 ovarian was 46.9 µM; in the test on SK-MEL-28 melanoma, 35.3 µM; in the test with T-47D breast, more than 76.2 µM; in the test with COLO 205 colon it was more than 52 µM; in the test with NCI/ADR-RES ovarian, 34.3 µM; in the test with A549 NSCLC, 29.1 µM. Moreover, the TGI is more than 100 µM in the test with K-562 leukemia; 54.2 µM in the test on BT-549 breast; 15.8 µM in the test with HCT-116 colon; more than 93.2 µM in the test on PC-3 prostate; 31 µM in the test on OVCAR-4 ovarian; 22.1 µM in the test with KM12 colon. For the same compound, the TGI in the test on SN12C renal is more than 65.3 µM; with SK-MEL-5 melanoma, 30.6 µM; in the test on MDA-N, 3.17 µM; in the test with SR leukemia, more than 100 µM; in the test with TK-10 renal, 22.8 µM; with MALME-3M melanoma, more than 80.4 µM.

The values are drawn from PubChem BioAssay (NCI).
